Results published in patent publication US20080063670A1, “Nitroimidazole composition and method” (priority 2006, published 2008).

What was measured:
[1] = Solubilization of nitroimidazoles in water with and without acids: crystals forced at about 4° C., re-dissolution observed at about 20° C. over about 14 days; format: physicochemical; parameters: key to crystals present: − means no crystals present; + means crystal are present; conditions: for crystals present: water, about 20° C., 14 days
Description: Heat was applied, if necessary, to dissolve the nitroimidazole. No organic co-solvents, water-soluble vitamins, or cyclodextrins were present in the solutions. The amount of acid was selected to be about equimolar with the amount of nitroimidazole added. After the nitroimidazole was dissolved, each solution was cooled to about 4° C. to force crystallization of some of the nitroimidazole. If crystals were not observed upon cooling, seed crystals of nitroimidazole were added and the solution were again maintained at about 4° C. […] The absence of crystals after 14 days indicates effective dissolution of the nitroimidazole.

[2] = in water at neutral pH; cited from earlier work

CCS(=O)(=O)CCn1c([N+](=O)[O-])cnc1C [Tinidazole, 1-[2-(ethylsulfonyl)ethyl]-2-methyl-5-nitroimidazole]
−: crystals present ([1]; Tinidazole Concentration 0.45%, Acid: Acetic (about equimolar)) | crystals present ([1]; Tinidazole Concentration 0.45%, Acid: Citric (about equimolar)) | crystals present ([1]; Tinidazole Concentration 0.45%, Acid: Hydrochloric (about equimolar)) | crystals present ([1]; Tinidazole Concentration 0.45%, Acid: None) | crystals present ([1]; Tinidazole Concentration 0.45%, Acid: Tartaric (about equimolar)) | crystals present ([1]; Tinidazole Concentration 0.50%, Acid: Acetic (about equimolar)) | crystals present ([1]; Tinidazole Concentration 0.50%, Acid: Citric (about equimolar)) | crystals present ([1]; Tinidazole Concentration 0.50%, Acid: Hydrochloric (about equimolar)) | crystals present ([1]; Tinidazole Concentration 0.50%, Acid: Tartaric (about equimolar)) | crystals present ([1]; Tinidazole Concentration 0.55%, Acid: Citric (about equimolar)) | crystals present ([1]; Tinidazole Concentration 0.55%, Acid: Hydrochloric (about equimolar)) | crystals present ([1]; Tinidazole Concentration 0.55%, Acid: Tartaric (about equimolar))
about 0.45 percent by weight: solubility in water [2]
about 0.55 percent by weight: concentration obtained (as high as), free from crystals ([1]; at 20° C., utilizing citric acid and using tartaric acid)
+: crystals present ([1]; Tinidazole Concentration 0.50%, Acid: None) | crystals present ([1]; Tinidazole Concentration 0.55%, Acid: Acetic (about equimolar)) | crystals present ([1]; Tinidazole Concentration 0.55%, Acid: None) | crystals present ([1]; Tinidazole Concentration 0.60%, Acid: Acetic (about equimolar)) | crystals present ([1]; Tinidazole Concentration 0.60%, Acid: Citric (about equimolar)) | crystals present ([1]; Tinidazole Concentration 0.60%, Acid: Hydrochloric (about equimolar)) | crystals present ([1]; Tinidazole Concentration 0.60%, Acid: None) | crystals present ([1]; Tinidazole Concentration 0.60%, Acid: Tartaric (about equimolar))

Cc1ncc([N+](=O)[O-])n1CCO [Metronidazole, 1-(2-hydroxyethyl)-2-methyl-5-nitroimidazole]
less than 1 percent by weight: solubility in water [2]
at least 1 percent by weight: concentration of solutions free from crystals ([1]; at 20° C., utilizing organic acids (e.g., acetic acid, citric acid, tartaric acid, and malic acid))
+: crystals present ([1]; Metronidazole Concentration 1.0%, Acid: None) | crystals present ([1]; Metronidazole Concentration 1.2%, Acid: Acetic (about equimolar)) | crystals present ([1]; Metronidazole Concentration 1.2%, Acid: Hydrochloric (about equimolar)) | crystals present ([1]; Metronidazole Concentration […], Acid: None)
−: crystals present ([1]; Metronidazole Concentration 0.8%, Acid: Acetic (about equimolar)) | crystals present ([1]; Metronidazole Concentration 0.8%, Acid: Hydrochloric (about equimolar)) | crystals present ([1]; Metronidazole Concentration 0.8%, Acid: None) | crystals present ([1]; Metronidazole Concentration 0.8%, Acid: Tartaric (about equimolar)) | crystals present ([1]; Metronidazole Concentration 1.0%, Acid: Acetic (about equimolar)) | crystals present ([1]; Metronidazole Concentration 1.0%, Acid: Citric (about equimolar)) | crystals present ([1]; Metronidazole Concentration 1.0%, Acid: Hydrochloric (about equimolar)) | crystals present ([1]; Metronidazole Concentration 1.0%, Acid: Tartaric (about equimolar)) | crystals present ([1]; Metronidazole Concentration 1.2%, Acid: Tartaric (about equimolar)) | crystals present ([1]; Metronidazole Concentration […], Acid: Citric (about equimolar))
